The values below come from patent publication US6994992B1, “Androgen-induced suppressor of cell proliferation and uses thereof” (Trustees of Tufts College, priority 1999, dated 2006).

One test concerns LNCaP-FGC cells. The experiment in a line: Proliferation of LNCaP-FGC cells in CDHuS with androgen. Format: cell-based, human. From the text:
Androgens regulate prostate cell numbers and cell proliferation by three major mechanisms: a) inhibition of cell death (apoptosis), b) induction of cell proliferation (Step-1), and c) inhibition of cell proliferation (proliferative shutoff, Step-2) (Isaacs (1985) Prostate 5:545–557; Bruchovsky et al. (1975) Vit. &Horm. 33:61–102; Sonnenschein et al., (1989) Cancer Res. 49:3474–3481). Androgens affect epithelial and stromal cell types which, in turn, interact in the prostate (Hayward et al., (1997) Brit. J. Urol. Suppl. 2: 18–26). […] Proliferation is inhibited in these cells by sex steroid-stripped (charcoal-dextran treated) human serum (CDHuS) (Sonnenschein et al., (1989) Cancer Res. 49:3474–3481). Low androgen concentrations cancel this inhibition (Step-1) and at higher levels, androgens induce an irreversible proliferative shutoff (Step-2) (Sonnenschein et al., (1989) Cancer Res. 49:3474–3481; Soto et al., (1995) Oncology Res. 7: 545–558). During the shutoff period, these cells remain in the G0/G1 phase of the cell cycle. Prostate specific antigen (PSA) induction, however, is still dependent on androgens in these postmitotic cells (Soto et al., (1995) Oncology Res. 7: 545–558). […]

The subject of a further test is STFX1 cells. The experiment in a line: BrdU incorporation, percent BrdU-labeled nuclei of STFX1 cells containing vector only or AS3 antisense constructs. Format: cell-based. The settings on record: for percent BrdU-labeled nuclei: 10 nM R1881 for 24 h, BrdU labeling. The source says: In particular, the AS3 antisense gene was cloned into the Clontech pRevTRE™ retroviral vector under the control of a tetracycline sensitive promoter. The promoter has seven repeats of the bacterial tetO operator sequence upstream of the minimal CMV promoter which can be bound by the tetracycline transactivator (tTA). The tTA is a fusion protein between the bacterial tetracycline repressor and the […] herpes virus transactivator. The tetracycline transactivator is sensitive for tetracycline such that, in the presence of tetracycline, the transactivator cannot bind the tetracycline promoter so the transgene is “off” and conversely, in the absence of tetracycline, the gene is “on” (i.e., the Tet-Off™ system; see, e.g., Clontech pRevTRE™ manual for further details).
The supernatants containing the highest amounts of virions were then used to infect the STFX1 cell line, a derivative of the MCF7-AR1 that has a tetracycline transactivator gene stably integrated. During the cloning and selection procedures, cells were maintained in 1 μg/mL of tetracycline to suppress the expression of the inducible transgenes.
In order to characterize the cell lines expressing AS3 antisense and the “control” cell lines having vector without insert, cells were incubated in the presence (i.e., the transgene is off) and absence of tetracycline (i.e., the transgene is on) and, after 36 hours, assayed for transcript expression using RT-PCR under standard conditions,
To determine the affect of androgen induced AS3 suppression of cellular growth, cells lines showing high levels of inducible AS3 antisense expression were chosen for further study. Cells were seeded onto coverslips in standard growth medium and allowed to grow for 5 days in the presence of 10 μg/ml tetracycline (hereafter “tet”). Then, vehicle or 10 nM of the androgen R1881 was added. Finally, 24 hours later, the cells were treated with 10 μg/ml of bromodeoxyuridine (BrdU) for several hours to measure the percent of cells actively proliferating as a function of BrdU incorporation during DNA replication. The cells were then fixed, Hoechst stained, and the percent number of BrdU-labeled cells was determined using immunocytochemistry (using standard BrdU labeling regents and protocols from Boheringer).

The test system of another test is AS3. The experiment in a line: Expression analysis of the AS3 transcript in LNCaP-FGC cells. Format: cell-based, human. The procedure: Briefly, androgen-specific, low-abundance regulatory mRNA sequences expressed during the proliferative shutoff, were selected using the Wang-Brown approach (Wang et al., (1991) Proc. Natl. Acad. Sci. USA 88: 11505–11509). […] LNCaP-FGC cells were treated with 30 nM R1881 to generate proliferative shutoff. R1881 (methyltrienolone) is a synthetic, non-metabolized androgen (Roussell-UCLAF, Romainville, France). Exposure to androgen for 24 hours was required to commit LNCaP-FGC cells to an irreversible proliferative shutoff (Geck et al., (1997) J. Steroid Biochem. Mol. Biol. 63: 211–218). […] LNCaP-FGC cells reversibly arrested by CDHuS were considered as the shutoff-negative control; they were harvested after three days of CDHuS treatment. Total RNA was prepared by the acidic guanidinium-thiocyanate method and polyA RNA was purified by using the FastTrack™ kit (Invitrogen, San Diego, Calif.) (Chomczinsky et al., (1987) Anal. Biochem. 162: 156–159).
Furthermore, expression of the AS3 transcript positively correlated with proliferation arrest as this gene was expressed only in shutoff-positive cell lines and variants. […] An additional observation that indicates the AS3 gene codes for an inhibitor of the proliferation of prostate cells is the increase of AS3 mRNA levels in the rat prostate when proliferation was arrested by prolonged androgen administration. […]

The mark [1] stands for this setting: CDHuS supplemented with 30 pM R1881.

Consider `C[C@]1(O)CC[C@H]2[C@@H]3CCC4=CC(=O)CCC4=C3C=C[C@@]21C` [R1881, methyltrienolone], for which the “proliferation of LNCaP-FGC cells” value is on record as “inhibited from proliferating” with LNCaP-FGC cells (0.3–30 nM of R1881) and “proliferated maximally” in the test with LNCaP-FGC cells (setting [1]). Further, the proliferative shutoff result with STFX1 cells (AS3 levels reduced by antisense expression in the absence of tetracycline (sample 8 vs sample 6), 10 nM R1881) was “no longer induces a proliferative shutoff”. The “percent BrdU-labeled nuclei” value in the test on STFX1 cells (STFX1 cells with AS3 antisense construct, +tet (antisense uninduced)) is 9.7 +/−0.6%; in the test with STFX1 cells (STFX1 cells with AS3 antisense construct, −tet (antisense expressed)), 29.1 +/−1.6%; with STFX1 cells (STFX1 cells with empty vector, +tet (10 μg/ml)), 9.4 +/−1.7%; with STFX1 cells (STFX1 cells with empty vector, −tet (vector induced)), 10.7 +/−0.9%. In addition, the “number of proliferating cells in S phase” value with STFX1 cells (cellular levels of AS3 unaffected (samples 2, 4, 6) compared to sample 1 without androgen, 10 nM R1881) is on record as “significant decrease”. Besides, the AS3 expression result with AS3 (0.3–30 nM of R1881) was “strongly induced”; in the test with AS3 (setting [1]), “not expressed”.
